Source: PMC8322037 (International Journal of Biological Macromolecules, 2021)

Target: SARS-CoV-2 3CL^pro (Severe acute respiratory syndrome coronavirus 2, UniProt P0DTD1)
Experiment: biochemical
Details: for Ratio (IC50 0.5 min / IC50 60 min): IC50 shift between 0.5 min and 60 min preincubation

O=C1c2c(O)cc(O)cc2OC(c2ccc(O)c(O)c2)C1O (centres unmarked) [Taxifolin]
IC50 (IC50 0.5 (min)): > 200 µM
IC50 (IC50 60 (min)): 72.7 µM
IC50 (IC50 (three different doses), assayed by using three different doses, Fig. 4): 10 to 100 µM
Ratio (IC50 0.5 min / IC50 60 min): >2.75

Myricitrin
Ratio (IC50 0.5 min / IC50 60 min): 8.32
